Data: patent US11673853B2, “Small molecule AMPK activators” (University of Pittsburgh—Of the Commonwealth System of …, priority 2016, dated 2023)

Key:
Diet-induced obese mice = experiment: Hyperinsulinemic euglycemic clamp study; format: in vivo; details: BC1618 20 mg/kg twice
Experimental: FIG. 30. Diet-induced obese mice were dosed 1× with vehicle or BC1618 (20 mg/kg) prior to overnight fast, followed by a 1× (20 mg/kg) morning dose prior to hyperinsulinemic euglycemic clamp. Body weight measurements are shown.
FIG. 31. From the same study as in FIG. 30, fasting plasma glucose and glucose infusion rate values are shown.
FIG. 32. From the same study as in FIG. 30, glucose infusion rate values are shown.
Diet-induced obese mice were dosed 1× with vehicle or BC1618 (20 mg/kg) prior to overnight fast, followed by a 1× (20 mg/kg) morning dose prior to hyperinsulinemic euglycemic clamp. […] Plasma glucose levels were matched during the clamp (FIG. 31, upper portion). The glucose infusion rate (GIR) required to maintain euglycemia in the 1618 treated mice was approximately 2-fold greater than VEH treated mice (FIG. 31, lower portion and average over last 40 min in FIG. 32, P<0.001), indicating improved whole-body insulin sensitivity.

[1] = test system: High-fat diet fed C57BL6J mice; experiment: Acute oral dosing study in high-fat diet fed mice; format: in vivo
PBMC cells = experiment: Cytokine array of LPS-treated PBMC cells; format: cell-based, human; details: 5 μM 18 h, then LPS 100 ng/ml 4 h
Experimental: FIG. 10. (A) 50K PBMC cells were cultured in 96 well plates before being exposed to Compound 23 for 18 h. Cells were then treated with LPS (10 ng/ml) for additional 4 h. Media were then collected and TNF and IL-1b concentration were determined by ELISA. (B) PBMC cells (1 mL at 1.0×10^6/ml) were treated with Compound 23 (5 μM) for 18 h. Cells were then treated with 100 ng/ml LPS for 4 h. Cytokine release was monitored by the human cytokine array (R&D systems). The results from a cytokine array dot blot were quantitated and graphed.
Compound 23 was tested in in vitro inflammatory assays. 50K PBMC cells were cultured in 96 well plates before being exposed to Compound 23 for 18 h. Cells were then treated with LPS (10 ng/ml) for additional 4 h. Media were then collected and assayed for TNF and IL-1b. […] Cytokine arrays were used to profile which cyotokine/chemokines were regulated by Compound 23.

AMPKα1 and AMPKα2 mRNA = experiment: AMPK mRNA analysis in Beas2b cells; format: cell-based, Human; details: glucose-free media, 18 h
Experimental: FIG. 4. (A) Beas2b cells were cultured in DMEM 2% media with glucose for 24 h before switching to glucose-free media. Cells were then exposed to Compound 12 in a dose dependent manner for 18 h before being collected for immunoblotting. (B) Beas2b cells were cultured in DMEM 2% media with glucose for 24 h before Compound 12 treatment in a dose dependent manner. After 18 h, cells were then collected for immunoblotting. (C) Beas2b cells were cultured in DMEM 2% media with glucose for 24 h before switching to glucose-free media. Cells were then exposed to Compound 12 for 18 h before being collected for mRNA analysis. (D) 50K PBMC cells were cultured in 96 well plates before being exposed to Compound 12 for 4 h. Cells were then treated with LPS (10 ng/ml) for additional 2 h. Media were then collected and IL-1b concentration was determined by ELISA.
A SAR study was performed by constructing analogs of Compound 1. […] Compound 12 was further tested in PBMCs. Briefly, PBMCs were treated with Compound 12 at various concentrations for 4 h before exposure to LPS (10 ng/ml) for 2 h.

mice = experiment: Pseudomonas (PA103) pneumonia model; format: in vivo; details: 2 or 10 mg/kg i.p., PA103 i.t., 18 h
Experimental: FIG. 7. Compound 12 (2 or 10 mg/kg) was administered to mice though an i.p. injection, and mice were immediately challenged with P. aeruginosa (strain PA103, 1.5*10^4 cfu/mouse, i.t.) or without (control, CON) for an additional 18 h. Mice were then euthanized and lungs were lavaged with saline, harvested, and then homogenized. Lavage protein, cell counts, bacterial count and cytokine secretions (A-C) were measured. Lungs were homogenized before being assayed by immunoblotting. The data are representative of data from n=5-6 mice/group, *P<0.05 versus vehicle.
Compound 12 was tested in two pneumonia model using Pseudomonas or LPS endotoxin.

Structure (SMILES) | body weight prior to clamp (Diet-induced obese mice) | glucose infusion rate (GIR) required to maintain euglycemia, relative to VEH treated mice (Diet-induced obese mice; P<0.001) | fasting plasma glucose (Diet-induced obese mice; before clamp, vehicle 111±3, P=0.12) | glucose tolerance (intraperitoneal glucose tolerance test) ([1]; 1 g/kg body weight glucose, data not shown) | body weight at the time of study ([1]; two oral doses (AICAR 200 mg/kg, BC1618 20 mg/kg)) | reduction of fasting plasma glucose compared to vehicle ([1]; two oral doses (AICAR 200 mg/kg, BC1618 20 mg/kg), 2 h after second dose, P=0.08) | cytokines/chemokines regulated (cytokine array) (PBMC cells) | mRNA levels of both AMPKα1 and AMPKα2 (AMPKα1 and AMPKα2 mRNA) | lavage bacterial counts (mice) | lavage cell counts (mice) | lavage protein concentration (mice) | lavage proinflammatory cytokines (mice; dose dependent) | pAMPK levels within the lung tissue (mice; immunoblotting)
OC(COc1ccc(C(F)(F)F)cc1)CN(Cc1ccccc1)Cc1ccccc1 (stereo not shown) [Compound 23] | no difference in body weight | approximately 2 fold | 100 ± 6 mg/dL | no difference in glucose tolerance | no differences in body weight | 25% | decreases CD40, GMCSF, IL-1b, IL-1ra, IL-2, IL-12, IL-13, ITAC and TNF | – | – | – | – | – | –
OC(COc1ccc(F)cc1)CN(Cc1ccccc1)Cc1ccccc1 (stereo not shown) [Compound 12] | – | – | – | – | – | – | – | effectively decreased | without affecting lavage bacterial counts | substantially decreased | substantially decreased | effectively reduces | drastically increasing
